{
  "source": "patent US20180221874A1",
  "about": "“FLUIDIC DEVICES INC[…] TISSUE AND METHODS OF USE” (President and Fellows of Harvard College, priority 2015, published 2018)",
  "system": "functional muscle tissue of human cardiac tissue",
  "assay": "Cardiac field potentials of functional muscle tissue measured with flexible electrode array",
  "assay_type": "cell-based",
  "settings": "escalating doses of isoproterenol; cardiac field potentials detected by microelectrode array; FIG. 27, 28",
  "from_the_text": "A cell seeding well attached to a second portion of a fluidic device including a gelatin flexible substrate with a micropatterned top surface on a COC base was used to culture a functional muscle tissue of human cardiac tissue on the flexible substrate and to separately evaluate the functional muscle tissue prior to assembling the rest of the fluidic device. FIG. 26 is an image of the cell seeding well 400 attached to the second portion 192 of the fluidic device. The top of the cell seeding well 400 was wrapped in a gas permeable membrane. […] The cultured functional muscle tissue on the flexible substrate was exposed to escalating doses of isoproterenol, a beta-adrenergic agonist, and resulting cardiac field potentials were measured using the flexible electrode array. FIG. 27 is a graph of the measured cardiac field potentials 610, 620, […], 640, 650, 660, 670 as a function of time detected by the microelectrode array for various concentrations of isoproterenol. FIG. 28 is a graph of the measured QT interval shortening as a function of the dose of isoproterenol. […] Thus, the modular nature of the fluidic device enabled the flexible substrate on the second portion of the device to be easily seeded and cultured to form the functional muscle tissue, and enabled the functional muscle tissue to be evaluated prior to assembly of the full fluidic device.",
  "note": "“Also recorded” adds a separate entry of the source.",
  "data": [
    {"smiles": "CC(C)NCC(O)c1ccc(O)c(O)c1", "note": "(stereo not shown) [isoproterenol]", "values": [
      {"measurement": "QT interval as a function of isoproterenol dose", "value": "shortening QT interval; also recorded: QT shortening with increased doses"}
    ]}
  ]
}
